This note sets out measurements from US9364468B2, “Pharmaceutical composition for preventing or treating tuberculosis” (INDUSTRY-ACADEMIC COOPERATION FOUNDATION, YONSEI UNIVERSITY, priority 2012, dated 2016).

Experiment [1] has as its system carbon monoxide dehydrogenase (CO-DH). In words: CO-DH activity assay (INT reduction in the presence of CO, enzyme extract). The experiment is classed as biochemical. The following applies: 12.5 μM compound; relative to control group set to 100%. As to the method: In order to obtain an enzyme extract to be used for the measurement of CO-DH activity, the bacteria cultured according to respective experiment conditions were collected by centrifugation at 18,000×g for 10 minutes at 4° C. (Eppendorf centrifuge-5403, Hamburg, Germany), washed twice with a 50 mM Tris-HCl (pH 7.5) buffer solution, and re-suspended in […] of a 50 mM Tris-HCl (pH 7.5) buffer solution. The suspended bacteria were homogenized at 0° C. by repeating 20 times of ultrasonication using an ultrasonic processor (Sonics & Materials Inc., Danbury, Conn.) wherein the ultrasonication was conducted such that ultrasonic wave at 20% amplitude was applied for 3 seconds and paused for 10 seconds. The homogenized culture solution was collected by centrifugation at 18,000×g for 30 minutes at 4° C. (Eppendorf centrifuge-5403), and a supernatant was used as an enzyme extract.
Proteins were quantified using bovine serum albumin (BSA) as a standard protein according to the method of Bradford (1976).
CO-DH activity was determined by measuring the reduction rate of 2-(4-indophenyl)-3-(4-nitrophenyl)-2H-tetrazolium chloride (INT, Sigma, ε496=17.981 mM^−1 cm^−1) in the presence of CO. Here, 1-methoxyphenazine methosulfate (MPMS, Sigma) was used as an electron transfer mediator between CO-DH and INT. A mixture solution of 19.2 ml of 50 mM Tris-HCl (pH 7.5), 250 μl of INT (9.8 mM), 50 μl of MPMS (8.9 mM), and 500 μl of Triton X-100 (25%, v/v) was saturated with CO gas. 800 μl of the resultant solution was added into a plastic cuvette, and then each compound was added thereto to a final concentration of 12.5 μM. Last, 800 μl of the enzyme extract was added thereto, followed by reaction at 30° C. for 200 seconds. Here, the absorbance change is due to red formazan generated resulting from INT reduction, and was measured at 496 nm by using a spectrophotometer (U-2000, Hitachi) equipped with a temperature adjuster. Enzyme specific activity was expressed as nmoles of reduced INT per mg of protein per minute (nmol/mg protein/min). The enzyme specific activity of each compound treatment group was expressed as a percentage of the control group of which enzyme specific activity was set to 100%, and the results were summarized in Table 1.

Experiment [2] has as its system Vero cell line (ATCC CCL-81). In words: Cytotoxicity test, CellTiter 96 Non-Radioactive Cell Proliferation Assay, Vero cell line. The experiment is classed as cell-based. Conditions: Chlorocebus sabaeus, 72 h, 3 days.
Experiment [3] has as its system marrow cell-derived macrophages. The experiment in a line: Cytotoxicity test, CellTiter 96 Non-Radioactive Cell Proliferation Assay, marrow cell-derived macrophages. The following applies: Mus musculus, Macrophage. It counts as cell-based. How it is done:
For preparation of mouse macrophages, the mouse femur was severed and then both ends thereof were cut. A 1-ml syringe was filled with the RPMI-1640 medium (Gibco), which was then used to isolate and take marrow cells in the femur. Blood cells were removed from the taken marrow cells by a low-osmotic buffer, and then the number of marrow cells was measured using a microscope. After appropriate dilution with the RPMI-1640 medium, the marrow cells were seeded in a 96-well microplate at 100,000 cells per well. After culturing in a CO2 incubator at 37° C. for 2 hours, cells other than the marrow cells were removed through exchange with a new RPMI-1640 medium. The medium was substituted with a culture supernatant of L929 cells, followed by culturing for 3 days. Again, the medium was substituted with a new culture supernatant of L929 cells, followed by culturing for 3 days.
Cytotoxicity was measured according to the method of Promega Inc., and 15 μl of a staining solution was applied to each well of the 96-well plate. The cells were incubated in a CO2 incubator at 37° C. for 4 hours, and then 100 μl of a quiescent solution was applied thereto. The absorbance of each well was measured at 570 nm using an absorbance measurement equipment from Molecular Devices. The absorbance values of wells not containing the compounds of Chemical Formulas 1 to 4 were compared with those of wells containing the compounds of Chemical Formulas 1 to 4 to determine the inhibition (%). The correlation between inhibition and concentration was calculated using the Prism software from Graphpad to determine IC50 (concentration at 50% inhibition) value. The marrow cell-derived macrophages were prepared by the method as described in Example 3 above.

Experiment [4] has as its system Mycobacterium sp. strain JC1 wild type. The experiment in a line: CFU inhibition of JC1 wild type by compound alone. It counts as cell-based. Conditions: read-out: Compound analog + JC 1 wild type (percentage (%) of CFU inhibition).

Bounds are passed on as bounds.

The IC50 is the midpoint of a concentration-inhibition curve. The term inhibition denotes the relative decrease from the control value, in per cent. As for `COC(=O)c1ccc(Cl)cc1NC(=O)CCSc1ccccn1` [Compound 4], in experiment [1], the “Inhibition of CO-DH activity” value was found to be 7%. Moreover, the half-inhibitory concentration (IC50) in experiment [2] was 158 µM. The 50% inhibitory concentration (IC50) in experiment [3] is more than 100 µM. Moreover, in experiment [4], the inhibition at 12.5 µM amounted to 2%, the inhibition at 25 µM was 4% and the inhibition at 50 µM amounted to 16%.
Take `COC(=O)c1ccccc1NC(=O)CSc1ccccn1` [Compound 3]: the “Inhibition of CO-DH activity” value in experiment [1] is given as 15%. The IC50 in experiment [2] was 109 µM. The IC50 in experiment [3] was more than 100 µM. Moreover, in experiment [4], the inhibition at 12.5 µM came out at 4%, the inhibition at 25 µM is 2% and the inhibition at 50 µM is 8%.
On to `COC(=O)c1ccsc1NC(=O)CSc1ccncc1` [Compound 1], for which the “Inhibition of CO-DH activity” value in experiment [1] was 48%. In addition, the 50% inhibitory concentration (IC50) in experiment [2] is 75.2 µM. The IC50 in experiment [3] was more than 100 µM. For the same compound, in experiment [4], the inhibition at 12.5 µM turned out to be 0%, the inhibition at 25 µM came to 2% and the inhibition at 50 µM came to 6%.
`COC(=O)c1ccccc1NC(=O)CSc1ccc(Br)cc1` [Compound 2]: the “Inhibition of CO-DH activity” value in experiment [1] worked out at 18%. Further, the IC50 in experiment [2] turned out to be 36.4 µM. The half-inhibitory concentration (IC50) in experiment [3] is more than 100 µM. In experiment [4], the inhibition at 12.5 µM was found to be 3%, the inhibition at 25 µM is 9% and the inhibition at 50 µM is 12%.
